#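 GI50 marks 50% less growth. TGI is the concentration that stops growth completely.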
# How the values were obtained:
# Assay in all cases: NCI-60 cell line screen, 384-well format
# SNB-75 CNS = test system: SNB-75 CNS
# CCRF-CEM leukemia = test system: CCRF-CEM leukemia
# A549 NSCLC = test system: A549 NSCLC
# NCI-H322M lung = test system: NCI-H322M lung
# NCI-H522 lung = test system: NCI-H522 lung
# MDA-MB-468 breast = test system: MDA-MB-468 breast
# TK-10 renal = test system: TK-10 renal
# MDA-MB-231 breast = test system: MDA-MB-231 breast
# OVCAR-5 ovarian = test system: OVCAR-5 ovarian
# SNB-19 CNS = test system: SNB-19 CNS
# NCI-H23 lung = test system: NCI-H23 lung
# BT-549 breast = test system: BT-549 breast
# SR leukemia = test system: SR leukemia
SMILES,GI50 (SNB-75 CNS) [µM],TGI (SNB-75 CNS) [µM],GI50 (CCRF-CEM leukemia) [µM],TGI (CCRF-CEM leukemia) [µM],GI50 (A549 NSCLC) [µM],TGI (A549 NSCLC) [µM],GI50 (NCI-H322M lung) [µM],TGI (NCI-H322M lung) [µM],GI50 (NCI-H522 lung) [µM],TGI (NCI-H522 lung) [µM],GI50 (MDA-MB-468 breast) [µM],TGI (MDA-MB-468 breast) [µM],GI50 (TK-10 renal) [µM],TGI (TK-10 renal) [µM],GI50 (MDA-MB-231 breast) [µM],TGI (MDA-MB-231 breast) [µM],GI50 (OVCAR-5 ovarian) [µM],TGI (OVCAR-5 ovarian) [µM],GI50 (SNB-19 CNS) [µM],TGI (SNB-19 CNS) [µM],other results
COc1ncc(-c2nc3c(n2C(C)C)[C@H](c2ccc(Cl)cc2)N(c2cc(Cl)cn(C)c2=O)C3=O)c(OC)n1,> 52.2,> 100,22.9,51.7,16.6,58.7,> 96,> 100,48.4,> 100,17.3,39.6,> 68.4,> 100,44.6,> 100,> 100,> 100,> 94.8,> 100,GI50 (NCI-H23 lung): 60.6 µM; TGI (NCI-H23 lung): > 100 µM; GI50 (BT-549 breast): 36.2 µM; TGI (BT-549 breast): > 100 µM; GI50 (SR leukemia): 1.96 µM; TGI (SR leukemia): 10.9 µM
O=C(Nc1cnn2ccc(N3CCC[C@@H]3c3cc(F)ccc3F)nc12)N1CC[C@H](O)C1,> 100,> 100,> 100,> 100,> 100,> 100,> 100,> 100,> 100,> 100,> 100,> 100,> 100,> 100,> 100,> 100,> 100,> 100,> 100,> 100,GI50 (NCI-H23 lung): > 100 µM; TGI (NCI-H23 lung): > 100 µM; GI50 (BT-549 breast): > 100 µM; TGI (BT-549 breast): > 100 µM; GI50 (SR leukemia): > 78.9 µM; TGI (SR leukemia): > 100 µM

# Source: PubChem BioAssay (NCI)
